Here are results for eight compounds from patent US20230011571A1, “SMALL MOLECULE FURIN INHIBITORS FOR TREATING INFECTIOUS DISEASES” (BP Asset V, Inc., priority 2019, published 2023).

Holding throughout (type): cell-based
Assay [1] has as its system Chikungunya virus (CHIKV). As to the kind of experiment: microbe, parasite or virus in culture. The conditions noted are these: Chikungunya virus, Vero, 48 h, read-out: Percent viral inhibition CHKV.
For another assay, the system named is dengue virus (DENV). As to the kind of experiment: microbe, parasite or virus in culture. The conditions noted are these: Dengue virus, Vero, 120 h, read-out: Percent viral inhibition DENY.
In the next assay the test system is Marburg virus (MARV). As to the kind of experiment: organism not typed. Conditions: Vero, 72 h, read-out: Percent viral inhibition MARV.

As usually defined, the inhibition is the drop in the measured response relative to a control, in per cent. Turning to `CC(=O)NCC1CCN(Cc2cc(Oc3ccc(N4CCN(CCCC(=O)O)CC4)nc3)nc(-c3cc(Cl)cc(Cl)c3)c2)CC1` [Example 249, 4-(4-(5-((4-((4-(acetamidomethyl)piperidin-1-yl)methyl)-6-(3,5-dichlorophenyl)pyridin-2-yl)oxy)pyridin-2-yl)piperazin-1-yl)butanoic acid], the inhibition at 1 µM in assay [1] was found to be 32.5%; in the assay with dengue virus (DENV), 48.6%; in the assay with Marburg virus (MARV), 51.4%.
In the case of `COCCN1CCN(c2ccc(Oc3cc(CN4CCC(CNC(C)=O)CC4)cc(-c4cc(Cl)cc(Cl)c4)n3)cn2)CC1` [Example 250, N-((1-((2-(3,5-dichlorophenyl)-6-((6-(4-(2-methoxyethyl)piperazin-1-yl)pyridin-3-yl)oxy)pyridin-4-yl)methyl)piperidin-4-yl)methyl)acetamide], the inhibition at 1 µM in assay [1] was found to be 25.9%; with dengue virus (DENV), 55%; in the assay on Marburg virus (MARV) it was 0%.
Regarding `CC(=O)NCC1CCN(Cc2cc(Oc3ccc(N4CCN(CCCS(C)(=O)=O)CC4)nc3)nc(-c3cc(Cl)cc(Cl)c3)c2)CC1` [Example 251, N-((1-((2-(3,5-dichlorophenyl)-6-((6-(4-(3-(methylsulfonyl)propyl)piperazin-1-yl)pyridin-3-yl)oxy)pyridin-4-yl)methyl)piperidin-4-yl)methyl)acetamide], the inhibition at 1 µM in assay [1] stood at 0%; in the assay with dengue virus (DENV), 45.5%; in the assay on Marburg virus (MARV) it was 38.9%.
As to `NS(=O)(=O)CCCN1CCN(c2ccc(Oc3cc(CN4CCC(CC(=O)O)CC4)cc(-c4cc(Cl)cc(Cl)c4)n3)cn2)CC1` [Example 252, 2-(1-((2-(3,5-dichlorophenyl)-6-((6-(4-(3-sulfamoylpropyl)piperazin-1-yl)pyridin-3-yl)oxy)pyridin-4-yl)methyl)piperidin-4-yl)acetic acid], the inhibition at 1 µM was determined as 33.2% in assay [1], 23.3% with dengue virus (DENV) and 53.5% in the assay on Marburg virus (MARV).
Taken in the same sequence, the figures for `CC(=O)NCC1CCN(Cc2cc(Oc3cnc(N4CCN(CCCS(N)(=O)=O)CC4)nc3)nc(-c3cc(Cl)cc(Cl)c3)c2)CC1` [Example 253, N-((1-((2-(3,5-dichlorophenyl)-6-((2-(4-(3-sulfamoylpropyl)piperazin-1-yl)pyrimidin-5-yl)oxy)pyridin-4-yl)methyl)piperidin-4-yl)methyl)acetamide] were 36.1%, 27.3% and 52.1%.
`CNC(=O)NCC1CCN(Cc2cc(Oc3ccc(N4CCN(CCOC)CC4)nc3)nc(-c3cc(Cl)cc(Cl)c3)c2)CC1` [Example 254, 1-((1-((2-(3,5-dichlorophenyl)-6-((6-(4-(2-methoxyethyl)piperazin-1-yl)pyridin-3-yl)oxy)pyridin-4-yl)methyl)piperidin-4-yl)methyl)-3-methylurea]: the inhibition at 1 µM is 5.74% in assay [1], 57% in the assay on dengue virus (DENV) and 40.4% in the assay on Marburg virus (MARV).
For `CNC(=O)NCC1CCN(Cc2cc(Oc3ccc(N4CCN(CCCS(C)(=O)=O)CC4)nc3)nc(-c3cc(Cl)cc(Cl)c3)c2)CC1` [Example 255, 1-((1-((2-(3,5-dichlorophenyl)-6-((6-(4-(3-(methylsulfonyl)propyl)piperazin-1-yl)pyridin-3-yl)oxy)pyridin-4-yl)methyl)piperidin-4-yl)methyl)-3-methylurea] the same measures were 16.1%, 10.3% and 40.1%.
For `CNC(=O)NCC1CCN(Cc2cc(Oc3cnc(N4CCN(CCC(=O)O)CC4)nc3)nc(-c3cc(Cl)cc(Cl)c3)c2)CC1` [Example 256, 3-(4-(5-((6-(3,5-dichlorophenyl)-4-((4-((3-methylureido)methyl)piperidin-1-yl)methyl)pyridin-2-yl)oxy)pyrimidin-2-yl)piperazin-1-yl)propanoic acid] the same measures were 30.4%, 47.2% and 49.3%.
